Assays:
patients with PoPH [1] = assay: Post-hoc: change in mPAP / PVR by baseline mPAP / PVR category; assay type: in vivo, human; conditions: for PVR Change from baseline to Week 12, Median / PVR Week 12, Median / PVR Change from baseline to Week 12, Mean / PVR Week 12, Mean / mPAP Week 12, Median / mPAP Week 12, Mean / mPAP Change from baseline to Week 12, Median / mPAP Change from baseline to Week 12, Mean: 10 mg, Full Analysis Set
Description: This example provides post hoc analyses of the study performed in Example 1. These analyses include: • To assess the effect of macitentan on mean pulmonary arterial pressure (mPAP) related to pre-treatment mPAP. • To assess the effect of macitentan on pulmonary vascular resistance (PVR) related to pre-treatment PVR.
The following exploratory endpoints were defined for the post hoc analyses: • mPAP change related to pre-treatment mPAP. • PVR change related to pre-treatment PVR
All analyses were performed on the full analysis set (FAS, as per randomization, N=85) and no data imputation was performed.
Risk categories are noted in Table 38. To analyze change in mPAP relative to baseline mPAP, the same mPAP categories were used as for transplant perioperative risk classification (Table 38). For the analysis of change in PVR relative to baseline PVR, waitlist mortality risk PVR categories were used (Table 38).

patients with PoPH [2] = assay: PORTICO safety: liver test and hemoglobin laboratory abnormalities; assay type: in vivo
Description: For the evaluation of treatment-emergent safety endpoints in the DB phase, the observation period for each individual subject started at the time of the first administration of macitentan or placebo and ended with the start of OL treatment or 30 days after DB treatment discontinuation (whichever occurred first). The safety variables listed below apply to the DB treatment-emergent period and the macitentan treatment-emergent period. The DB treatment-emergent period was defined as the period from the DB treatment start date up to the EOT-DB+30 days or to the EOT-DB for patients entering OL. The macitentan treatment-emergent period was defined as the period from the first intake of macitentan up to end of macitentan treatment (EOMT)+30 days. EOMT was defined as EOT-DB (for patient who received macitentan only in the DB period) or EOT-OL when applicable. For patients entering OLE, the EOMT is EOT-OL. • Treatment-emergent AEs • Treatment-emergent deaths • Treatment-emergent serious adverse events (SAEs) • AEs leading to premature discontinuation of study treatment • Occurrence of post-baseline LFT (ALT and/or AST) abnormalities, classified as: • ≥3×ULN; • ≥5×ULN; • ≥8×ULN; • ≥3×ULN and <5×ULN; • […] and <8×ULN. • Occurrence of post-baseline ALT and/or AST abnormality 3×ULN and concomitant (i.e., at the same time) total bilirubin ≥2×ULN • Occurrence of post-baseline ALT and/or AST abnormality ≥3×ULN and concomitant (i.e., at the same time) total bilirubin ≥2×ULN and increased as compared to baseline • Occurrence of hemoglobin abnormalities, classified as: • ≤80 g/L, • >80 and ≤100 g/L, • decrease from baseline ≥20 g/L and <50 g/L, • decrease from baseline ≥50 g/L, • <100 g/L and concurrent (i.e., at the same time) decrease from baseline ≥20 g/L. • Other treatment-emergent marked laboratory abnormalities • Change from baseline/macitentan baseline to EOT-DB/EOMT in vital signs • Change from baseline/macitentan baseline to EOT-DB/EOMT in laboratory variables • Change from baseline/macitentan baseline to EOT-DB/EOMT in Child-Pugh classification • Change from baseline/macitentan baseline to EOT-DB/EOMT in MELD score
Treatment-emergent liver test and hemoglobin abnormalities are those that occurred during the DB treatment-emergent (SS) and macitentan treatment-emergent (MTS) periods that were not present at baseline.
For post-baseline liver test abnormalities, the following events are considered: • ALT and/or AST ≥3×ULN, • ALT and/or AST ≥5×ULN, • ALT and/or AST ≥8×ULN, • ALT and/or AST ≥3×ULN and <5×ULN, • ALT and/or AST ≥5×ULN and <8×ULN, • ALT and/or AST ≥3×ULN and concomitant (i.e., at the same time) total bilirubin ≥2×ULN. • ALT and/or AST 3×ULN and concomitant (i.e., at the same time) total bilirubin ≥2×ULN and increased as compared to baseline
The highest ALT or AST value at any post-baseline time point of assessment for DB treatment-emergent (SS) and macitentan treatment-emergent (MTS) periods was considered in the evaluation of incidences.
For the occurrence of post-baseline hemoglobin abnormalities, the following events were considered in the evaluation of incidences: • Hemoglobin ≤80 g/L, • Hemoglobin >80 and […], • Hemoglobin decrease from baseline ≥20 g/L and <50 g/L, • Hemoglobin decrease from baseline ≥50 g/L, • Hemoglobin <100 g/L and concurrent (i.e., at the same time) decrease from baseline ≥20 g/L.
The lowest hemoglobin value at any post-baseline time point of assessment for DB treatment-emergent (SS) and macitentan treatment-emergent (MTS) periods was considered in the evaluation of incidences.

[3] = PVR at baseline <= 450 dyn · sec/cm^5, n 12
[4] = PVR at baseline > 450 dyn · sec/cm^5, n 27
[5] = mPAP at baseline < 35 mmHg, n 2
[6] = DB phase, Safety set, 10 mg, N = 43, most extreme post-baseline value
[7] = single macitentan-treated patient, DB phase
[8] = single patient, DB+OL phase, malignant ascites and hepatic encephalopathy

Q: `CCCNS(=O)(=O)Nc1ncnc(OCCOc2ncc(Br)cn2)c1-c1ccc(Br)cc1` [macitentan, N-[5-(4-Bromophenyl)-6-[2-[(5-bromo-2-pyrimidinyl)oxy]ethoxy]-4-pyrimidinyl]-N′-propylsulfamide] was tested. Which “Macitentan-treated patients with a decrease in PVR at Week 12 compared to baseline” value (patients with PoPH [1]; FAS no imputation, 41 patients) did it give?
A: Its value is 95.3%.

Q: And the “Macitentan-treated patients with a decrease in mPAP at Week 12 compared to baseline” value (patients with PoPH [1]; FAS no imputation, thirty-eight patients)?
A: The value was 88.3%.

Q: And the “PVR Change from baseline to Week 12, Median” value (patients with PoPH [1]; [3])?
A: Its value is −120.0 dyn · sec/cm^5.

Q: What about the “PVR Week 12, Median” value (patients with PoPH [1]; [3]) of the same compound?
A: The value was 248.7 dyn · sec/cm^5.

Q: And the “PVR Change from baseline to Week 12, Mean” value (patients with PoPH [1]; PVR at baseline <= 450 dyn · sec/cm^5, n 12, SD 71.23)?
A: The value was −116.4 dyn · sec/cm^5.

Q: What about the “PVR Week 12, Mean” value (patients with PoPH [1]; PVR at baseline <= 450 dyn · sec/cm^5, n 12, SD 86.64) of the same compound?
A: The value was 264.6 dyn · sec/cm^5.

Q: And the “PVR Change from baseline to Week 12, Median” value (patients with PoPH [1]; [4])?
A: The value was −244.9 dyn · sec/cm^5.

Q: What about the “PVR Week 12, Median” value (patients with PoPH [1]; [4]) of the same compound?
A: Its value is 382.5 dyn · sec/cm^5.

Q: What about the “PVR Change from baseline to Week 12, Mean” value (patients with PoPH [1]; PVR at baseline > 450 dyn · sec/cm^5, n 27, SD 125.48) of the same compound?
A: Its value is −249.4 dyn · sec/cm^5.

Q: And the “PVR Week 12, Mean” value (patients with PoPH [1]; PVR at baseline > 450 dyn · sec/cm^5, n 27, SD 130.62)?
A: The value was 400.7 dyn · sec/cm^5.

Q: What about the “Mean (SD) decrease in mPAP at Week 12” value (patients with PoPH [1]; and <45 mmHg) of the same compound?
A: Its value is 5.2 (4.22) mmHg.

Q: And the “Mean (SD) decrease in PVR at Week 12” value (patients with PoPH [1]; baseline PVR <450 dyn·s/cm^5)?
A: Its value is 116.4 (71.23) dyn·s/cm^5.

Q: And the “Mean (SD) decrease in PVR at Week 12” value (patients with PoPH [1]; baseline PVR >450 dyn·s/cm^5)?
A: Its value is 249.4 (125.48) dyn·s/cm^5.

Q: And the “Mean (SD) decrease in mPAP at Week 12” value (patients with PoPH [1]; baseline mPAP <35 mmHg)?
A: Its value is 2.0 (5.66) mmHg.

Q: What about the “Mean (SD) decrease in mPAP at Week 12” value (patients with PoPH [1]; baseline mPAP ≥45 mmHg) of the same compound?
A: Its value is 7.8 (5.27) mmHg.

Q: What about the “mPAP Week 12, Median” value (patients with PoPH [1]; mPAP at baseline 35 to < 45 mmHg, n 13) of the same compound?
A: Its value is 36.0 mmHg.

Q: And the “mPAP Week 12, Mean” value (patients with PoPH [1]; mPAP at baseline 35 to < 45 mmHg, n 13, SD 3.84)?
A: The value was 35.4 mmHg.

Q: What about the “mPAP Change from baseline to Week 12, Median” value (shortened to “mPAP Change … Median”) (patients with PoPH [1]; [5]) of the same compound?
A: The value was −2.0 mmHg.

Q: And the “mPAP Week 12, Median” value (patients with PoPH [1]; [5])?
A: The value was 29.0 mmHg.

Q: What about the “mPAP Change from baseline to Week 12, Mean” value (from here on “mPAP Change … Mean”) (patients with PoPH [1]; mPAP at baseline < 35 mmHg, n 2, SD 5.66) of the same compound?
A: The value was −2.0 mmHg.

Q: And the “mPAP Week 12, Mean” value (patients with PoPH [1]; mPAP at baseline < 35 mmHg, n 2, SD 8.49)?
A: The value was 29.0 mmHg.

Q: And the “mPAP Week 12, Median” value (patients with PoPH [1]; mPAP at baseline >= 45 mmHg, n 24)?
A: Its value is 43.0 mmHg.

Q: And the “mPAP Week 12, Mean” value (patients with PoPH [1]; mPAP at baseline >= 45 mmHg, n 24, SD 7.04)?
A: The value was 44.0 mmHg.

Q: What about the “mPAP Change … Median” value (patients with PoPH [1]; mPAP at baseline ≥ 35 to < 45 mmHg, n 13) of the same compound?
A: The value was −5.0 mmHg.

Q: What about the “mPAP Change … Mean” value (patients with PoPH [1]; mPAP at baseline ≥ 35 to < 45 mmHg, n 13, SD 4.22) of the same compound?
A: Its value is −5.2 mmHg.

Q: What about the “mPAP Change … Median” value (patients with PoPH [1]; mPAP at baseline ≥ 45 mmHg, n 24) of the same compound?
A: The value was −7.5 mmHg.

Q: What about the “mPAP Change … Mean” value (patients with PoPH [1]; mPAP at baseline ≥ 45 mmHg, n 24, SD 5.27) of the same compound?
A: Its value is −7.8 mmHg.

Q: What about the “Patients with hemoglobin decreased to ≤80 g/L” value (patients with PoPH [2]; DB phase) of the same compound?
A: Its value is “none”.

Q: And the “ALT or AST >= 5*ULN” value (patients with PoPH [2]; [6])?
A: The value was 0/43.

Q: And the “ALT or AST >= 5*ULN and <8*ULN” value (patients with PoPH [2]; [6])?
A: The value was 0/43.

Q: What about the “ALT or AST >= 8*ULN” value (patients with PoPH [2]; [6]) of the same compound?
A: Its value is 0/43.

Q: What about the “Hemoglobin <= 80 g/L” value (patients with PoPH [2]; [6]) of the same compound?
A: Its value is 0/43.

Q: And the “Patients with hemoglobin decreased to ≤100 g/L” value (patients with PoPH [2]; DB phase, macitentan group)?
A: Its value is 3 patients.

Q: And the “Patients with hemoglobin decreases of ≥20 g/L” value (patients with PoPH [2]; DB phase, macitentan group (12 patients))?
A: The value was 27.9%.

Q: And the “Patients with aminotransferase increase to >3×ULN” value (patients with PoPH [2]; DB phase, macitentan-treated)?
A: The value was 1 patient.

Q: What about the “ALT or AST >= 5*ULN and <8*ULN” value (patients with PoPH [2]; macitentan DB + OL phase, Macitentan treated set, N = 84) of the same compound?
A: Its value is 0/84.

Q: And the “Patients with aminotransferase increase to >3×ULN” value (patients with PoPH [2]; macitentan DB+OL phase)?
A: Its value is 2 patients.

Q: What about the “Patients with hemoglobin decrease of ≥50 g/L” value (patients with PoPH [2]; macitentan DB+OL phase) of the same compound?
A: The value was 6 patients.

Q: What about the “Patients with hemoglobin decreased to ≤80 g/L” value (patients with PoPH [2]; macitentan DB+OL phase) of the same compound?
A: Its value is 4 patients.

Q: And the “Patients with hemoglobin decreased to ≤100 g/L” value (patients with PoPH [2]; macitentan DB+OL phase)?
A: The value was 13 patients.

Q: And the “Patients with hemoglobin decreases of ≥20 g/L” value (patients with PoPH [2]; macitentan DB+OL phase (31 patients))?
A: Its value is 37.3%.

Q: And the “ALT in the patient with aminotransferase increase” value (patients with PoPH [2]; [7])?
A: Its value is 3.1 ×ULN.

Q: And the “AST in the patient with aminotransferase increase” value (patients with PoPH [2]; [7])?
A: The value was 3.2 ×ULN.

Q: What about the “Bilirubin in the patient with aminotransferase increase” value (patients with PoPH [2]; [7]) of the same compound?
A: The value was 2.7 ×ULN.

Q: What about the “ALT in the additional patient with aminotransferase increase” value (patients with PoPH [2]; [8]) of the same compound?
A: The value was 3.6 ×ULN.

Q: And the “AST in the additional patient with aminotransferase increase” value (patients with PoPH [2]; [8])?
A: The value was 8.6 ×ULN.

Q: What about the “Bilirubin in the additional patient with aminotransferase increase” value (patients with PoPH [2]; [8]) of the same compound?
A: The value was 11.1 ×ULN.

Q: What about the “Macitentan-treated patients with Hy's Law range liver test abnormalities” value (patients with PoPH [2]; whole study) of the same compound?
A: Its value is 2 patients.
